{"source": "ChEMBL document CHEMBL3751683", "about": "“Synthesis, colon-targeted studies and pharmacological evaluation of an anti-ulcerative colitis drug 4-Aminosalicylic acid-β-O-glucoside” (Eur J Med Chem, 2016)", "key": {"Colon [1]": {"tested_on": "Colon", "experiment": "Drug level in Sprague-Dawley rat colon treated with sodium 4-amino-2-((2S,3R,4S,5S,6R)-3,4,5-trihydroxy-6-(hydroxymethyl)tetrahydro-2H- pyran-2-yloxy)benzoate at pH 7.4 after 12 hrs by HPLC analysis", "type": "ADME, tissue-based", "conditions": "in vivo, pH 7.4, 12 h"}, "Small intestine [2]": {"tested_on": "Small intestine", "experiment": "Drug level in colitis Sprague-Dawley rat model small intestine homogenate treated with sodium 4-amino-2-((2S,3R,4S,5S,6R)-3,4,5-trihydroxy-6-(hydroxymethyl)tetrahydro-2H- pyran-2-yloxy)benzoate at pH 6.8 by HPLC analysis", "type": "ADME, tissue-based", "conditions": "in vivo"}, "Rattus norvegicus [3]": {"tested_on": "Rattus norvegicus", "experiment": "Antiulcerative colitis activity in TNBS-induced Sprague-Dawley rat colitis model assessed as myeloperoxidase activity at 115 mg/kg, qd for 6 consecutive days by spectrophotometry (reference value: 1.44 +/- 0.041 U/g)", "type": "functional"}, "Colon [4]": {"tested_on": "Colon", "experiment": "Drug level in colitis Sprague-Dawley rat model colon treated with sodium 4-amino-2-((2S,3R,4S,5S,6R)-3,4,5-trihydroxy-6-(hydroxymethyl)tetrahydro-2H- pyran-2-yloxy)benzoate at pH 7.4 after 12 hrs by HPLC analysis", "type": "ADME, tissue-based", "conditions": "in vivo, pH 7.4, 12 h"}, "Stomach [5]": {"tested_on": "Stomach", "experiment": "Drug level in colitis Sprague-Dawley rat model stomach homogenate treated with sodium 4-amino-2-((2S,3R,4S,5S,6R)-3,4,5-trihydroxy-6-(hydroxymethyl)tetrahydro-2H- pyran-2-yloxy)benzoate at pH 4.5 by HPLC analysis", "type": "ADME, tissue-based", "conditions": "in vivo"}, "[6]": {"experiment": "Drug level in colitis Sprague-Dawley rat model cecum treated with sodium 4-amino-2-((2S,3R,4S,5S,6R)-3,4,5-trihydroxy-6-(hydroxymethyl)tetrahydro-2H- pyran-2-yloxy)benzoate at pH 7.4 after 12 hrs by HPLC analysis", "type": "ADME, tissue-based, Caecum", "conditions": "in vivo, pH 7.4, 12 h"}, "Rattus norvegicus [7]": {"tested_on": "Rattus norvegicus", "experiment": "Antiulcerative colitis activity in TNBS-induced Sprague-Dawley rat colitis model assessed as effect on TNBS-induced inflammatory infiltrate at 115 mg/kg qd for 6 consecutive days by hematoxylin and eosin staining based light microscopic analysis", "type": "functional, organism-based"}, "Small intestine [8]": {"tested_on": "Small intestine", "experiment": "Drug level in Sprague-Dawley rat small intestine homogenate treated with sodium 4-amino-2-((2S,3R,4S,5S,6R)-3,4,5-trihydroxy-6-(hydroxymethyl)tetrahydro-2H- pyran-2-yloxy)benzoate at pH 6.8 by HPLC analysis", "type": "ADME, tissue-based", "conditions": "in vivo"}, "Stomach [9]": {"tested_on": "Stomach", "experiment": "Drug level in Sprague-Dawley rat stomach homogenate treated with sodium 4-amino-2-((2S,3R,4S,5S,6R)-3,4,5-trihydroxy-6-(hydroxymethyl)tetrahydro-2H- pyran-2-yloxy)benzoate at pH 4.5 by HPLC analysis", "type": "ADME, tissue-based", "conditions": "in vivo"}, "[10]": {"experiment": "Drug level in Sprague-Dawley rat cecum treated with sodium 4-amino-2-((2S,3R,4S,5S,6R)-3,4,5-trihydroxy-6-(hydroxymethyl)tetrahydro-2H- pyran-2-yloxy)benzoate at pH 7.4 after 12 hrs by HPLC analysis", "type": "ADME, tissue-based, Caecum", "conditions": "in vivo, pH 7.4, 12 h"}, "Rattus norvegicus [11]": {"tested_on": "Rattus norvegicus", "experiment": "Antiulcerative colitis activity in TNBS-induced Sprague-Dawley rat colitis model assessed as effect on TNBS-induced mucosal abscess at 115 mg/kg qd for 6 consecutive days by hematoxylin and eosin staining based light microscopic analysis", "type": "functional, organism-based"}, "[12]": {"experiment": "Aqueous solubility of the compound", "type": "physicochemical", "conditions": "buffer"}, "Rattus norvegicus [13]": {"tested_on": "Rattus norvegicus", "experiment": "Antiulcerative colitis activity in TNBS-induced Sprague-Dawley rat colitis model assessed as decrease in severity of inflammation at 115 mg/kg qd for 6 consecutive days measured on 7th day", "type": "functional, organism-based"}, "[14]": {"experiment": "Partition coefficient, log P of the compound at pH 7.4 by shake flask method", "type": "physicochemical", "conditions": "octanol/water"}, "Rattus norvegicus [15]": {"tested_on": "Rattus norvegicus", "experiment": "Antiulcerative colitis activity in TNBS-induced Sprague-Dawley rat colitis model assessed as normal morphology of colon at 255 mg/kg qd for 6 consecutive days by hematoxylin and eosin staining based light microscopic analysis", "type": "functional, organism-based"}, "Rattus norvegicus [16]": {"tested_on": "Rattus norvegicus", "experiment": "Antiulcerative colitis activity in TNBS-induced Sprague-Dawley rat colitis model drug administered for once daily for 6 consecutive days", "type": "functional, organism-based"}, "Rattus norvegicus [17]": {"tested_on": "Rattus norvegicus", "experiment": "Antiulcerative colitis activity in TNBS-induced Sprague-Dawley rat colitis model assessed as decrease in severity of inflammation at 385 to 128 mg/kg qd for 6 consecutive days measured on 7th day", "type": "functional, organism-based"}, "[18]": {"experiment": "Stability of compound in isotonic phosphate buffer at pH 1.2 after 12 hrs by HPLC analysis", "type": "physicochemical", "conditions": "pH 1.2, 12 h"}, "Rattus norvegicus [19]": {"tested_on": "Rattus norvegicus", "experiment": "Antiulcerative colitis activity in TNBS-induced Sprague-Dawley rat colitis model assessed as myeloperoxidase activity at 385 mg/kg, qd for 6 consecutive days by spectrophotometry (reference value: 1.44 +/- 0.041 U/g)", "type": "functional"}, "Rattus norvegicus [20]": {"tested_on": "Rattus norvegicus", "experiment": "Antiulcerative colitis activity in TNBS-induced Sprague-Dawley rat colitis model assessed as effect on TNBS-induced mucosal abscess at 128 mg/kg qd for 6 consecutive days by hematoxylin and eosin staining based light microscopic analysis", "type": "functional, organism-based"}, "Rattus norvegicus [21]": {"tested_on": "Rattus norvegicus", "experiment": "Antiulcerative colitis activity in TNBS-induced Sprague-Dawley rat colitis model assessed as decrease in macroscopic injury ratio drug administered once daily for 6 consecutive days measured 24 hrs after last drug challenge", "type": "functional, organism-based"}, "[22]": {"experiment": "Stability of compound in isotonic phosphate buffer at pH 7.4 after 12 hrs by HPLC analysis", "type": "physicochemical", "conditions": "pH 7.4, 12 h"}, "Rattus norvegicus [23]": {"tested_on": "Rattus norvegicus", "experiment": "Antiulcerative colitis activity in TNBS-induced Sprague-Dawley rat colitis model assessed as normal morphology of colon at 385 mg/kg qd for 6 consecutive days by hematoxylin and eosin staining based light microscopic analysis", "type": "functional, organism-based"}, "Rattus norvegicus [24]": {"tested_on": "Rattus norvegicus", "experiment": "Antiulcerative colitis activity in TNBS-induced Sprague-Dawley rat colitis model at 385 mg/kg, qd for 6 consecutive days measured after 12 days", "type": "functional, organism-based"}, "Rattus norvegicus [25]": {"tested_on": "Rattus norvegicus", "experiment": "Antiulcerative colitis activity in TNBS-induced Sprague-Dawley rat colitis model assessed as myeloperoxidase activity at 255 mg/kg, qd for 6 consecutive days by spectrophotometry (reference value: 1.44 +/- 0.041 U/g)", "type": "functional"}, "Rattus norvegicus [26]": {"tested_on": "Rattus norvegicus", "experiment": "Antiulcerative colitis activity in TNBS-induced Sprague-Dawley rat colitis model assessed as decrease in colon/body weight ratio drug administered once daily for 6 consecutive days measured 24 hrs after last drug challenge", "type": "functional, organism-based"}, "[27]": {"experiment": "Stability of compound in isotonic phosphate buffer at pH 6.8 after 12 hrs by HPLC analysis", "type": "physicochemical", "conditions": "pH 6.8, 12 h"}, "Rattus norvegicus [28]": {"tested_on": "Rattus norvegicus", "experiment": "Antiulcerative colitis activity in TNBS-induced Sprague-Dawley rat colitis model assessed as myeloperoxidase activity at 300 mg/kg, qd for 6 consecutive days by spectrophotometry (reference value: 1.44 +/- 0.041 U/g)", "type": "functional"}, "Rattus norvegicus [29]": {"tested_on": "Rattus norvegicus", "experiment": "Antiulcerative colitis activity in TNBS-induced Sprague-Dawley rat colitis model assessed as decrease in severity of inflammation at 300 mg/kg qd for 6 consecutive days measured on 7th day", "type": "functional, organism-based"}}, "note": "The source made the active and inactive calls. No cut-off for these calls is given here."}
{"smiles": "Nc1ccc(C(=O)O)c(O)c1", "note": "[AMINOSALICYLIC ACID]", "values": [{"measurement": "Drug metabolism", "setting": "Colon [1]", "result": "metabolite_detected"}, {"measurement": "Drug metabolism", "setting": "Small intestine [2]", "result": "metabolite_detected"}, {"measurement": "Activity", "setting": "Rattus norvegicus [3]", "result": 0.82, "unit": "U/g"}, {"measurement": "Drug metabolism", "setting": "Colon [4]", "result": "metabolite_detected"}, {"measurement": "Drug metabolism", "setting": "Stomach [5]", "result": "metabolite_detected"}, {"measurement": "Drug metabolism", "setting": "[6]", "result": "metabolite_detected"}, {"measurement": "Activity", "setting": "Rattus norvegicus [7]", "result": "inactive"}, {"measurement": "Drug metabolism", "setting": "Small intestine [8]", "result": "metabolite_detected"}, {"measurement": "Drug metabolism", "setting": "Stomach [9]", "result": "metabolite_detected"}, {"measurement": "Drug metabolism", "setting": "[10]", "result": "metabolite_detected"}, {"measurement": "Activity", "setting": "Rattus norvegicus [11]", "result": "inactive"}, {"measurement": "solubility", "setting": "[12]", "result": 1.43, "unit": "mg/mL"}, {"measurement": "inhibition", "setting": "Rattus norvegicus [13]", "result": "Active"}, {"measurement": "logD", "setting": "[14]", "result": 0.901}]}
{"smiles": "Nc1ccc(O)c(C(=O)O)c1", "values": [{"measurement": "Activity", "setting": "Rattus norvegicus [7]", "result": "inactive"}, {"measurement": "Activity", "setting": "Rattus norvegicus [11]", "result": "inactive"}, {"measurement": "inhibition", "setting": "Rattus norvegicus [13]", "result": "Active"}]}
{"smiles": "Nc1ccc(C(=O)[O-])c(O[C@@H]2O[C@H](CO)[C@@H](O)[C@H](O)[C@H]2O)c1.[Na+]", "values": [{"measurement": "Activity", "setting": "Rattus norvegicus [15]", "result": "Active"}, {"measurement": "Activity", "setting": "Rattus norvegicus [16]", "result": "Dose-dependent effect"}, {"measurement": "inhibition", "setting": "Rattus norvegicus [17]", "result": "Active"}, {"measurement": "Stability", "setting": "[18]", "result": "Stable"}, {"measurement": "Activity", "setting": "Rattus norvegicus [19]", "result": 0.4, "unit": "U/g"}, {"measurement": "Activity", "setting": "Rattus norvegicus [20]", "result": "inactive"}, {"measurement": "inhibition", "setting": "Rattus norvegicus [21]", "result": "Dose-dependent effect"}, {"measurement": "solubility", "setting": "[12]", "result": 635, "unit": "mg/mL"}, {"measurement": "Stability", "setting": "[22]", "result": "Stable"}, {"measurement": "Activity", "setting": "Rattus norvegicus [23]", "result": "Active"}, {"measurement": "Activity", "setting": "Rattus norvegicus [24]", "result": "Active"}, {"measurement": "Activity", "setting": "Rattus norvegicus [25]", "result": 0.51, "unit": "U/g"}, {"measurement": "inhibition", "setting": "Rattus norvegicus [26]", "result": "Dose-dependent effect"}, {"measurement": "Stability", "setting": "[27]", "result": "Stable"}, {"measurement": "logD", "setting": "[14]", "result": -0.44}]}
{"smiles": "O=C(O)c1cc(/N=N/c2ccc(S(=O)(=O)Nc3ccccn3)cc2)ccc1O", "note": "[SULFASALAZINE]", "values": [{"measurement": "Activity", "setting": "Rattus norvegicus [28]", "result": 0.58, "unit": "U/g"}, {"measurement": "inhibition", "setting": "Rattus norvegicus [29]", "result": "Active"}]}
